From patent US8207142B2, “Inhibitor of DNA methylation” (priority 2001, dated 2012) come the findings set out here.

SMILES strings stand for the structures. Several values for one entry are separate records, joined by “and”; a condition that tells them apart may be missing. Equal entries are not always repeated.

The subject of data set [1] is DNA methylation of the am^RIP and ψ63 sequences. Put plainly: Southern blot analysis of DNA methylation in N. crassa (Dpn II vs Sau3AI digests). It counts as cell-based, Neurospora crassa. Conditions: 12 and 24 μM 5-AC; 0.33 and 3.3 μM TSA; 20, 39, 78, 160 and 310 μM Zebularine. On the procedure: DNA was digested with Dpn II (D) or Sau3AI (S), fractionated by gel electrophoresis, transferred to a membrane and probed for am (FIG. 4A) or ψ63 (FIG. 4B) sequences. Dpn II and Sau3AI both recognize the sequence GATC, but Sau3AI fails to cleave if the C residue is methylated. Thus, differences between S and D lanes are indicative of DNA methylation.
The ramp symbols at the top of the figure represent increasing concentrations of drug. Drug concentrations were 12 and 24 μM 5-AC; 0.33 and 3.3 μM TSA; and 20, 39, 78, 160 and 310 μM Zebularine. The positions of selected size standards (kb) are indicated.
Southern hybridizations were performed on DNA samples (−1 μg) isolated from liquid cultures inoculated with 7×10^4 conidia/ml. DNA was digested with Dpn II (D) or Sau3AI (S), fractionated by gel electrophoresis, transferred to a nylon membrane and probed for am^RIP (FIG. 4A) or ψ63 (FIG. 4B) sequences. The restriction endonucleases Dpn II and-Sau3AI both recognize the sequence GATC, but Sau3AI fails to cleave if the C residue is methylated. Drug concentrations were […] 5-AC, 0.33 and 3.3 μM TSA, and […] Zebularine.
The positions of selected size standards (kb) and the origin (ori) are indicated. […] Differences between S and D lanes are indicative of DNA methylation.

For data set [2], the system named is 10T1/2 cells. Put plainly: Induction of a myogenic phenotype (myotube formation) in 10T1/2 cells. It counts as cell-based, mouse. Also noted: key to Muscle Formation: + representing minimal muscle formation; scored for muscle cells 9-10 days later as + to +++; +++ representing maximal muscle formation. On the procedure: Cells were plated (3×10^5 cells/100-mm dish) and treated 24 hours later with the indicated concentrations of compounds. The medium was either changed 24 hours or 48 hours after drug treatment. Myotube formation was assayed in 10T1/2 cells as previously described (Constantinides et al., Nature 267:364-366, 1977). […] The ability of Zebularine to cause 10T1/2 cells to undergo the myogenic switch was therefore tested (FIG. 7).

The subject of a further data set is p3 locus. Put plainly: Ms-SNuPE quantitation of DNA methylation in 10T1/2 cells. The format is cell-based, mouse. Conditions: 0.3 μM, 24 hours, control 86. The protocol:
(§1) The average methylation at defined CpG sites was quantitated using a Ms-SNuPE assay, as described by Gonzalgo and Jones (Nucleic Acids Res. 25:2529-2531, 1997) and U.S. Pat. No. 6,251,594. Briefly, genomic DNA (˜4 μg) was digested overnight with 4 units of EcoRI (Boehringer Mannheim) (p16 promoter/exon 1 and p16 exon 2; FIG. 9A) or with 4 units of RsaI (Boehringer Mannheim) (P3; FIG. 9B) to cut outside the region of interest.
(§2) After standard treatment with sodium bisulfite, a PCR product of the region was generated as template for top-strand methylation analysis. The sequences of the primers used for bisulfite-treated DNA amplification were as follows: […]
P3: 95° C. for 2 minutes, 95° C. for 1 minute, 50° C. for 50 seconds, and 72° C. for 1 minute for 40 cycles, with a final extension at 72° C. for 10 minutes.
(§3) Duplicates of 4 μl of template were then added to 6 μl of mixture consisting of 1× PCR buffer, 1 μM final concentration primers, 1 μCi of [^32P]dCTP or dTTP, and 1 unit 1:1 Taq/TaqStart antibody (Clontech, Palo Alto, Calif.). Single nucleotide extension involved incubation at 95° C. for 1 minute, then 50° C. for 2 minutes, and finally 72° C. for 1 minute (p16 promoter/exon1 and P16 exon 2) and 95° C. for 1 minute, then 46° C. for 30 seconds, and finally 72° C. for 20 seconds (P3). The sequences for SNuPE primers were as follows: […]
(§4) After briefly spinning down the tubes, 4 μl of stop solution were added to the 10-μl reaction volume, and the samples were boiled for 5 minutes at 95° C. before loading 1.5 μl onto a 15% denaturing polyacrylamide gel (7 M urea). The gel was run at 90 W for 1.5 hours and then dried at 80° C. for 40 minutes. The gel was exposed to a phosphorimaging cassette for quantitation of the ratio of [^32P]dCTP versus [^32P]dTTP incorporation, and the quantitation of the percent methylation was averaged from three separate CpG sites. The gel was then exposed to BioMax MR film (Kodak) to record experimental results.

Data set [3] has as its system 10T1/2 cells. As to the kind of experiment: Colony-formation assay (plating efficiency) in 10T1/2 cells. The format is cell-based, mouse. The protocol:
(§5) The percentage cell survival was assessed by dividing the mean colony number on the treated plates divided by the mean colony number on the untreated plates ×100.

For data set [4], the system named is p16 gene expression in T24 cells. Put plainly: RT-PCR analysis of p16 expression in T24 cells. It counts as cell-based, human. The following applies: 3 μM. The protocol:
The T24 cell line was obtained from the American Type Culture Collection (Rockville, Md.) and cultured in DMEM supplemented with 10% heat-inactivated fetal calf serum and 100 U/ml penicillin-streptomycin. Cultures were grown in a humidified incubator at 37° C. in an atmosphere of 5% CO2 in air.
Cells were plated (3×10^5 cells/100-mm dish) and treated 24 hours later with the indicated concentrations of compounds. The medium was either changed 24 hours or 48 hours after drug treatment.
DNA and RNA were isolated three days after treatment using the NucleoBond RNA/DNA Midi Kit (Clontech Laboratories, Inc., Palo Alto, Calif.).
Total RNA (˜10 μg) was reverse-transcribed using the following reagents: 100 units RNAsin (Promega Corp., Madison, Wis.), 0.1 M DTT (Life Technologies, Inc.), 1000 units of MMLV-RT (Life Technologies, Inc.), 1 mM deoxynucleotide triphosphates (Boehringer Mannheim, Germany), 75 μg/ml BSA, 1× MMLV-RT buffer (Life Technologies, Inc.), and 0.025 ODU Random Hexamers (Amersham-Pharmacia Biotech, Piscataway, N.J.). The reaction mixture was incubated for 10 minutes at 25° C., 45 minutes at 42° C., 3 minutes at 90° C., and chilled for 5 minutes at 4° C., during which time 1.25 μl of MMLV-RT (200 U/μl) were added and the sample then incubated for 45 minutes at 42° C., 10 minutes at 75° C., and stored at −20° C.
cDNA was amplified with primers specific for either p16 or GAPDH. Briefly, PCR reactions were performed in 25-μl volumes at 94° C. for 3 minutes, 28 cycles at 94° C. for 1 minute, 56° C. for 30 seconds, 72° C. for 40 seconds, and a final extension step at 72° C. for 5 min (p16 amplification), and 94° C. for 1 minute, 19 cycles at 94° C. for 1 minute, 58° C. for 30 seconds, 72° C. for 45 seconds, and a final extension step at 72° C. for 2 minutes (GAPDH amplification).
PCR amplifications were performed with cDNA template concentration equivalent to 100 ng of RNA in 10% DMSO. All reactions were analyzed in the linear range of amplification. PCR products were resolved on 2% agarose gels and subsequently transferred to a nylon membrane (Zetaprobe; Bio-Rad, Richmond, Calif.) under alkaline conditions. All blots were hybridized with a γ-^32P-labeled internal oligonucleotide probe, using protocols previously described (Xiong and Laird, Nuc. Acids Res. 25:2532-2534, 1997).
Since 5-Aza-CdR has been shown previously to induce p16 expression in a dose-dependent manner (Bender et al., Cancer Res. 58:95-101, 1998), the two ribonucleoside analogs 5-Aza-CR and Zeb were examined to determine their abilities to induce p16 expression (FIG. 8). Because Zeb is stable in aqueous solution, the effect of prolonging Zeb treatment on p16 expression was tested by treating these cells with different concentrations of Zeb for either 24 hours or 48 hours. RT-PCR was then performed to determine whether p16 gene was induced by drug treatment.

The subject of another data set is p16 promoter. Put plainly: Ms-SNuPE quantitation of DNA methylation in T24 cells, p16 promoter. Conditions: 3 μM, 24 hrs; control 96. It counts as cell-based, human. The protocol: as §1, §2
p16 promoter/exon 1: 94° C. for 3 minutes, 94° C. for 45 seconds, 67° C. for 45 seconds, and 72° C. for 45 seconds for 40 cycles, with a final extension step at 72° C. for 10 minutes.
as §3, §4

The next data set relates to p16 exon 2. As to the kind of experiment: Ms-SNuPE quantitation of DNA methylation in T24 cells, p16 exon 2. The format is cell-based, human. Conditions: 3 μM, 24 hrs. The protocol:
as §1, §2
p16 exon 2: 94° C. for 3 minutes, 94° C. for 1 minute, 62° C. for 45 seconds, and 72° C. for 45 seconds for 40 cycles, with a final extension step at 72° C. for 10 minutes.
as §3, §4

The subject of another data set is T24 cells. As to the kind of experiment: Colony-formation assay (decrease in plating efficiency) in T24 cells. The format is cell-based, human. The following applies: 3 μM, 24 hrs. On the procedure:
as §5

For `CC(/C=C/C(=O)NO)=C\[C@@H](C)C(=O)c1ccc(N(C)C)cc1` [TSA, trichostatin A], the “effect on DNA methylation (Southern blot)” value in data set [1] is listed as “selective inhibition of methylation”.
In the case of `Nc1ncn([C@H]2C[C@H](O)[C@@H](CO)O2)c(=O)n1` [5-Aza-CdR, 5-aza-2′-deoxycytidine], the “Muscle Formation” value with 10T1/2 cells [2] (0.3 μM, 24 hours treatment, scored 9-10 days later) was “+++”. Moreover, the “muscle formation (micrographs, in words)” value in the data set with 10T1/2 cells [2] (10T1/2 cells, approximately 9-10 days after drug treatment) is reported as “formed multinucleated myotubes”. Further, the “% Methylation” value in the data set on p3 locus was 54% and 54 +/− 5%. The “decrease in plating deficiency (cytotoxicity)” value in the data set on 10T1/2 cells [3] (0.3 μM, 10T1/2 cells) turned out to be 74%. Also, in the data set with 10T1/2 cells [3] (0.3 μM, 250 cells, stained after 14-16 days, control 22), the “Ave. Plating Efficiency (%)” value turned out to be 5%. In addition, in the data set with 10T1/2 cells [3] (10T1/2 cells, 0.3 μM 5-Aza-CdR, 3 μM 5-Aza-CR, 30 μM Zebularine), the cell death observed entry is listed as “appreciable cell death”. Besides, in data set [4], the “p16 expression (RT-PCR)” value is recorded as “robust expression of p16”. For the same molecule, in the data set on p16 promoter, the “p16 Promoter Methylation (%)” value was 52% and 52 +/− 5%. The “Relative p16 Exon 2 De-methylation (%)” value in the data set with p16 exon 2 is listed as 47 +/− 1%. Further, the “p16 Exon 2 Methylation (%)” value in the data set on p16 exon 2 (control 96) was 51 +/− 1%. For the same molecule, the “Toxicity (%) (decrease in plating efficiency)” value in the data set on T24 cells was determined as 75%.
